Reference: patent US12577231B2, “Androgen receptor PROTACS” (GlaxoSmithKline Intellectual Property Development Limited, priority 2023, dated 2026)
Substitutions are numbered along the chain they refer to.

Experiments:
[1] = target: T1, Androgen Receptor protein in human LnCaP cells (Homo sapiens, UniProt P10275, T878A); assay: Androgen Receptor Degradation Assay (Nano-Glo HiBiT, LnCaP cells); assay type: cell-based; conditions: 18 h, HiBiT-tagged AR LnCaP cells, 18 h incubation, fitted curve asymptote maximum of degradation, read-out: mean asymptote max
T1 construct: the AR gene was modified, using CRISPR/Cas9 editing, so the expressed AR protein included an 11 amino acid HiBiT tag; endogenous in cells; host or cells: clonal LnCaP derived cell line, endogenous AR gene edited by CRISPR/Cas9
T1 sequence (P10275 1-920 T878A): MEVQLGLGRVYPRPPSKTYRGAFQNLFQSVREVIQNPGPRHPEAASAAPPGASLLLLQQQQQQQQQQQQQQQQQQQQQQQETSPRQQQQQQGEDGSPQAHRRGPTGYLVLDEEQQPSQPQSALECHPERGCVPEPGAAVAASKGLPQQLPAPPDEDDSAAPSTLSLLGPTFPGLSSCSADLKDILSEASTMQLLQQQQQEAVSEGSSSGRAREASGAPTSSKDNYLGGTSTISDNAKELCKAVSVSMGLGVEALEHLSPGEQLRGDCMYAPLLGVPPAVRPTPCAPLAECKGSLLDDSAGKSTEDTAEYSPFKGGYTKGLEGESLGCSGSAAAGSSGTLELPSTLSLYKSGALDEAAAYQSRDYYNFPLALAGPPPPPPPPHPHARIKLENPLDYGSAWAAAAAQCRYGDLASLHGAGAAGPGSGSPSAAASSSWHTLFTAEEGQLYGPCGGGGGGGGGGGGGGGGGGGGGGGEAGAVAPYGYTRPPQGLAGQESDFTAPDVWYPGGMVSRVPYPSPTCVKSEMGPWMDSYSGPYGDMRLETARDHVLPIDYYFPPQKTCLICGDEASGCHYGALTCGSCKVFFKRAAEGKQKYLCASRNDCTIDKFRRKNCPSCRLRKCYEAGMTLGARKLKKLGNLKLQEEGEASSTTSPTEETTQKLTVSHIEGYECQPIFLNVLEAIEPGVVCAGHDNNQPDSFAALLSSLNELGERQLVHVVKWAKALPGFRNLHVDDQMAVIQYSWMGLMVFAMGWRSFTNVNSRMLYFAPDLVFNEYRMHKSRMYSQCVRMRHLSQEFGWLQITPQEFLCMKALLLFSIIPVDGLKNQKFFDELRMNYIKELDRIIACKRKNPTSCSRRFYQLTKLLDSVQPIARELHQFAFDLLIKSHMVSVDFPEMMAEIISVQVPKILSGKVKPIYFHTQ
Procedure: Degradation of Androgen Receptor protein in human LnCaP cells treated with PROTACs was quantified using the Nano-Glo® HiBiT Lytic Detection System (Promega) in 384 well assay plate format. A clonal LnCaP derived cell line was first established in which the AR gene was modified, using CRISPR/Cas9 editing, so the expressed AR protein included an 11 amino acid HiBiT tag at its amino-terminus. 10 mM DMSO stock solutions of PROTACs were prepared and diluted across an 11 concentration, 3 fold increment range, and 25 nL dispensed into a white opaque bottomed 384 well assay plate (Thermofisher) using an acoustic ECHO dispenser (Labcyte). Cells were grown in cell culture medium (RPMI 1640 supplemented with 15% FBS, penicillin 50U/mL and streptomycin 50 ug/mL (Thermofisher)). For the assay, cells were detached from flask and resuspended with assay medium (FluoroBrite™ DMEM supplemented with 10% heat inactivated FBS, penicillin 50U/mL and streptomycin 50 ug/mL (Thermofisher)). The cell suspension was centrifuged at 400 g for 5 min and the pellet resuspended in assay medium. 25 μL of cell suspension containing 10,000 cells was dispensed into each well of the assay plate containing a serial dilution of test compounds, which was then incubated for 18 h at 37° C./5% CO2. Control wells were included on each assay plate, with assay medium without cells being the no AR remaining 100% effect control, and cells treated with DMSO vehicle only, without PROTAC, the 0% effect control. 25 μL of Nano-Glo® HiBiT lysis buffer supplemented with LgBiT protein and Nano-Glo® substrate (Promega) was added to each well and the plate shaken at 500 rpm for 10 min at room temperature. The intensity of luminescence was measured using a PHERAstar microplate reader (BMG Labtech) and the % AR protein remaining in each well calculated by normalising the raw luminescence value to the above control wells. Parameters corresponding to the potency and efficacy estimates of the PROTACs were obtained from these normalised luminescence values using software (IDBS ActivityBase). These included the DC50 (concentration at which 50% of protein was degraded in M) and the Dmax (maximal degradation, in %) estimates. Two versions of the DC50, called relative DC50 and absolute DC50, were generated. These are the inflection point of a fitted 4 parameter sigmoidal response curve and the interpolated concentration of PROTAC corresponding to 50% of the protein being degraded, respectively. The corresponding pDC50 is reported as −log10(relative […]). The Dmax parameter was the maximum experimentally observed degradation and the asymptote max parameter the fitted response curve asymptote maximum.

[2] = target: T2, Androgen Receptor dual T878A/L702H mutant protein (Homo sapiens, UniProt P10275, L702H/T878A); assay: Dual Mutant (T878A/L702H) Androgen Receptor Degradation Assay (HTRF, MDA-PCa-2b cells); assay type: cell-based; conditions: 18 h, 18 h incubation, read-out: mean asymptote max
T2 construct: host or cells: MDA-PCa-2b
T2 sequence (P10275 1-920 L702H/T878A): T1 sequence (P10275 1-920 T878A) with L702H
Procedure: Degradation of Androgen Receptor dual T878A/L702H mutant protein in human MDA-PCa-2b (ATCC) cells treated with PROTACs was quantified using the HTRF Human Androgen Receptor Detection Kit (PerkinElmer) in 384 well assay plate format. 10 mM DMSO (Sigma-Aldrich) stock solutions of PROTACs were prepared and diluted across an 11 concentration, 3-fold increment range, and 25 nL dispensed into a white opaque bottomed 384 well assay plate (Thermofisher) using an acoustic ECHO dispenser (Labcyte). Cells were cultured in growth medium (BRFF—HPC-1 (Athena ES) supplemented with 20% FBS (Gibco), penicillin 50U/mL and streptomycin 50 μg/mL (Gibco, #15140-122)) in collagen I or poly-D-lysine coated T175 flasks (Corning, #356487 or #356539, respectively). For the assay, cells were harvested from the flask, centrifuged at 200 g for 5 min and then resuspended in the growth medium. 25 μl of cell suspension containing 10,000 cells was dispensed into each well of the assay plate containing the test compounds, which was then incubated for 18 h at 37° C./5% CO2. Control wells were included on each assay plate, with assay medium without cells being the no AR remaining 100% effect control, and cells treated with DMSO vehicle only, without PROTAC, the 0% effect control. After 18 h incubation 8 μl of supplemented lysis buffer from HTRF kit was added to each well and the plate shaken at 500 rpm for 1 h at room temperature. 8 μl of antibody mix in Detection buffer from HTRF kit was added to each well and the plate was incubated for 2 h in dark at mom temperature. The fluorescence was measured at both 620 nm and 665 nm using an excitation wavelength of 337 nm with a PHERAstar microplate reader (BMG Labtech) and the % AR protein remaining in each well was calculated by normalising the HTRF ratio (665 nm signal/620 nm signal) value to the control wells mentioned above. Parameters corresponding to the potency and efficacy estimates of the PROTACs were obtained from these normalised values using curve fitting software (IDBS ActivityBase). These included the DC50 and the Dmax estimates. Two versions of the DC50, called relative DC50 and absolute DC50, were typically generated. These are the inflection point of a fitted 4 parameter sigmoidal response curve and the interpolated concentration of PROTAC corresponding to 50% of the protein being degraded, respectively. The Dmax parameter was the maximum experimentally observed degradation and the asymptote max parameter the fitted response curve asymptote maximum.

Dmax [1]	Dmax [2]	Structure (SMILES)
≥ 50%	–	COc1cc(O[C@H]2C(C)(C)[C@H](NC(=O)c3ccc(N4CCC(CN5CCC(n6ncc7c(N8CCC(=O)NC8=O)ccnc76)CC5)CC4)c(F)c3)C2(C)C)ccc1C#N [Example 19, N-((1r,3r)-3-(4-Cyano-3-methoxyphenoxy)-2,2,4,4-tetramethylcyclobutyl)-4-(4-((4-(4-(2,4-dioxotetrahydropyrimidin-1(2H)-yl)-1H-pyrazolo[3,4-b]pyridin-1-yl)piperidin-1-yl)methyl)piperidin-1-yl)-3-fluorobenzamide]
–	≥ 50%	COc1cc(O[C@H]2C(C)(C)[C@H](NC(=O)c3ccc(N4CCC(CN5CCC(n6ncc7c(N8CCC(=O)NC8=O)c(F)ccc76)CC5)CC4)c(F)c3)C2(C)C)ccc1C#N [Example 25, N-((1r,3r)-3-(4-Cyano-3-methoxyphenoxy)-2,2,4,4-tetramethylcyclobutyl)-4-(4-((4-(4-(2,4-dioxotetrahydropyrimidin-1(2H)-yl)-5-fluoro-1H-indazol-1-yl)piperidin-1-yl)methyl)piperidin-1-yl)-3-fluorobenzamide]
–	≥ 50%	COc1cc(O[C@H]2C(C)(C)[C@H](NC(=O)c3ccc(N4CCC(CN5CC[C@H](n6ncc7c(N8CCC(=O)NC8=O)cccc76)[C@H](F)C5)CC4)c(F)c3)C2(C)C)ccc1C#N [Example 26, N-((1r,3r)-3-(4-Cyano-3-methoxyphenoxy)-2,2,4,4-tetramethylcyclobutyl)-4-(4-(((3R,4S)-4-(4-(2,4-dioxotetrahydropyrimidin-1(2H)-yl)-1H-indazol-1-yl)-3-fluoropiperidin-1-yl)methyl)piperidin-1-yl)-3-fluorobenzamide]
–	≥ 50%	CC1(C)[C@H](NC(=O)c2ccc(N3CCC(CN4CCC(n5ncc6c(N7CCC(=O)NC7=O)cccc65)CC4)CC3)cc2)C(C)(C)[C@H]1Oc1ccc(C#N)c2ncccc12 [Example 29, N-((1r,3r)-3-((8-Cyanoquinolin-5-yl)oxy)-2,2,4,4-tetramethylcyclobutyl)-4-(4-((4-(4-(2,4-dioxotetrahydropyrimidin-1(2H)-yl)-1H-indazol-1-yl)piperidin-1-yl)methyl)piperidin-1-yl)benzamide]
–	≥ 50%	CC1(C)[C@H](NC(=O)c2cc(F)c(N3CCC(CN4CCC(n5ncc6c(N7CCC(=O)NC7=O)cccc65)CC4)CC3)cc2F)C(C)(C)[C@H]1Oc1ccc(C#N)c2ncccc12 [Example 35, N-((1r,3r)-3-((8-Cyanoquinolin-5-yl)oxy)-2,2,4,4-tetramethylcyclobutyl)-4-(4-((4-(4-(2,4-dioxotetrahydropyrimidin-1(2H)-yl)-1H-indazol-1-yl)piperidin-1-yl)methyl)piperidin-1-yl)-2,5-difluorobenzamide]
